Laboratory results: patent publication EP4810494A1, “HPK1 DEGRADATION AGENT AND USE THEREOF IN FIELD OF MEDICINE” (Haisco Pharmaceutical Group Co., Ltd., priority 2023, dated 2025)
Counter-ions that a name gives are not always drawn. Like-named read-outs stand apart in the source and are kept apart here.

Legend:
[1] = Pharmacokinetic test in mice; assay type: in vivo, ICR mice; details: mouse, plasma
Description: Test example 6: Pharmacokinetic test in mice
Experimental objective: In this experiment, a single dose of test substances was administered to ICR mice intravenously and intragastrically, the concentrations of the test compounds in plasma of mice were measured, and the pharmacokinetic characteristics and bioavailability of the test compounds in mice were evaluated.
Experimental animals: Male ICR mice, 20-35 g, purchased from Chengdu Dossy Experimental Animals Co., Ltd. (SCXK (CHUAN) 2020-030).
Experimental method: On the day of the experiment, the ICR mice were randomly grouped according to their body weights. The animals were fasted but with water available overnight before the administration, and fed 4 h after the administration.
Sampling: Blood was taken from the orbits of the mice at specified time points, and placed in an EDTAK2 centrifuge tube. Centrifugation was performed at 5000 rpm at 4°C for 10 min, and the plasma was collected.
Time points for plasma collection in G1 and G1-2 groups: 0, 5 min, 15 min, 30 min, 1 h, 2 h, 4 h, 7 h, and 24 h.
Time points for plasma collection in G2 and G2-2 groups: 0, 5 min, 15 min, 30 min, 1 h, 2 h, 4 h, 7 h, and 24 h.
Before analysis and detection, all the samples were stored at -60°C or lower. The samples were analysed quantitatively by LC-MS/MS. Table 6-1 PK data of test compound drug in mice

[2] = Pharmacokinetic test in rats; assay type: in vivo, SD rats; details: rat, plasma
Description: Test example 7: Pharmacokinetic test in rats
Experimental animals: Male SD rats, 180-200 g, purchased from Chengdu Dossy Experimental Animals Co., Ltd. with the laboratory animal production license number of SCXK (CHUAN) 2020-030.
Experimental design: on the day of the experiment, the SD rats were randomly grouped according to their body weights. The animals were fasted but with water available overnight before the administration, and fed 4 h after the administration.
Vehicle for intragastric administration: 5% Solutol+5% TPGS+30% PEG400+60% (20% SBE-β-CD)
Blood was taken from the orbits of the […] at specified time points, and placed in an EDTAK2 centrifuge tube. Centrifugation was performed at 5000 rpm for 10 min, and the plasma was collected.
Blood sampling time points for the intravenous administration group were: 0, 5 min, 15 min, 30 min, 1 h, 2 h, 4 h, 6 h, 8 h and 24 h; blood sampling time points for the intragastric administration group were: 0, 5 min, 15 min, 30 min, 1 h, 2 h, 4 h, 6 h, 8 h and 24 h. Before analysis and detection, all the samples were stored at - 60°C or lower. The samples were analysed quantitatively by LC-MS/MS. Table 7-1 PK data of test compound drug in rats

[3] = test system: IL-2 secretion by T cells; experiment: IL-2 detection assay in cells (ELISA, pan-T cells isolated from PBMCs); assay type: cell-based; details: IL-2, CD3 antibody-coated plate, 24 hours; for Maximum activation fold: maximum activation rate/control group
Description: 9. IL-2 detection assay in cells
Activating effect of compounds on IL-2 secretion by T cells was evaluated using the ELISA method. Frozen PBMCs were thawed, and pan-T cells were isolated and purified using a T cell sorting kit (Stemcell, 17951). The cells were resuspended in 1640 complete medium and incubated in a 37°C&5%CO2 incubator overnight. A 96-well plate coated with an anti-human CD3 antibody (Thermo, 16-0037-38) at a final concentration of 5 µg/mL was incubated at 37°C for 2 h. The overnight-cultured cells were collected by centrifugation, the supernatant was discarded, and the cells were resuspended in 1640 complete medium, and seeded in the CD3 antibody-coated 96-well plate at a density of 10^5cells/well. The compounds at different concentrations were added, and the mixture was incubated in a 37°C&5%CO2 incubator for 24 hours. After the incubation was completed, the resulting mixture was centrifuged at 1000 rpm for 1 minute to collect the supernatant, and IL-2 was detected according to the ELISA instructions. DMSO without compounds was used as the control group to calculate the activation rate of the compounds, and prism was used to fit the activation curve. Maximum activation fold = maximum activation rate/control group. Table 9-1 Results of IL-2 activation by test compounds

HPK1 protein = target: T1, HPK1 protein (Homo sapiens, UniProt Q92918); experiment: Detection of HPK1 protein expression level in Jurkat cells (24 h); assay type: cell-based; details: 24 hours incubation
T1 construct: host or cells: Jurkat cells
Description: Test example 4: Detection of HPK1 protein expression level in Jurkat cells (24 h)
Jurkat cells from ATCC were placed in a RPMI-1640 complete medium (supplemented with 10% FBS and 1% penicillin-streptomycin solution) and cultured at 37°C and 5% CO2. The cells in the logarithmic growth phase were collected, the cell density was adjusted to 5 × 10^5 cells/well with the culture medium, and the cells were added to a 6-well cell culture plate at a volume of 1 mL/well. The compound to be tested was prepared to 2-fold the final concentration, 1 mL of the compounds at different concentrations were added to administration wells, a medium containing 0.2% DMSO was added to control wells, and the plate was incubated at 37°C and 5% CO2 for 24 hours. The cells were collected into a 1.5 mL centrifuge tube, 30 µL of RIPA lysis buffer (containing 1X protease inhibitor cocktail) was added, and the cells were lysed on ice for 15 minutes and centrifuged at 12000 rpm/min at 4°C for 10 minutes. The supernatant was collected and the protein content was determined using the BCA method. The protein sample to be tested was diluted to 0.2 mg/mL, HPK1 was detected using a fully automated protein expression quantitative analyser (ProteinSimple), and the internal reference protein was β-actin (all antibodies were from CST). The software (Compass for SW) of the fully automated protein expression quantitative analyser was used to process the raw data and calculate the peak area after internal reference normalisation and the HPK1 degradation rate relative to the control group. The HPK1 degradation rate was calculated according to formula 4-1, where Aadministration well is the relative peak area of the administration group after internal reference normalisation, and Acontrol well is the relative peak area of the vehicle control group after internal reference normalisation. DC50 values were calculated using a four-parameter non-linear fitting model in Graphpad 8.3.0 software. HPK1_degradation % = 100−(Aadministration well/Acontrol well×100%) [formula] Table 4-1 Degradation activity of test compounds against HPK1 protein in Jurkat cells (24 h)

HPK1 kinase = target: T2, HPK1 kinase (Homo sapiens, UniProt Q92918); experiment: HPK1 kinase assay (1 mM ATP); assay type: biochemical
T2 construct: purchased Carna 07-410
T2 sequence (Q92918 1-346 limits assumed): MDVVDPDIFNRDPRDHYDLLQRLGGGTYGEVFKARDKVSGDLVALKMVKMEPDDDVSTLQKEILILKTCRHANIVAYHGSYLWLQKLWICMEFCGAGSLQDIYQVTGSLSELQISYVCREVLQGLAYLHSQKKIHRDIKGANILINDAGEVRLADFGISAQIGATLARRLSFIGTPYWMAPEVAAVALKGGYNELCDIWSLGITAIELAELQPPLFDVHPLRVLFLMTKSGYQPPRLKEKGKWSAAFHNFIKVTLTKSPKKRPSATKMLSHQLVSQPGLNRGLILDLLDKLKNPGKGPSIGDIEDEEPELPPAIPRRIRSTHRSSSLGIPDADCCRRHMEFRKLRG
Description: Test example 5: HPK1 kinase assay (1 mM ATP)
The kinase HPK1 (Carna, Cat.No 07-410) was prepared into 2× kinase solution using 1× kinase buffer. The substrate Fluorescein-PKC (Invitrogen, Cat. No. PV3506) and ATP (working concentration: 1 mM) (Sigma, Cat. No. 2383-5G) were prepared into 2× substrate solution using 1×kinase buffer. The detection reagent was diluted to 2-fold the final concentration using an antibody diluent. 100 nL of compounds at different concentrations and 5 µL of kinase solution were added to each well of a 384-well plate, and the mixture was incubated at room temperature for 10 minutes. After the incubation was completed, 5 µL of substrate solution was added to each well, and the resulting mixture was reacted at room temperature for 90 minutes. After the reaction was completed, 10 µL of detection reagent was added to each well to terminate the reaction, and the mixture was incubated at room temperature for 60 minutes. Fluorescence readings were detected using an Envision instrument with excitation at 320 nm and emission at 520 nm and 495 nm. IC50 value was calculated using XLFit excel add-in version 5.4.0.8 software. The calculation formula of the inhibition rate was shown in formula 5-1, wherein max is the Ratio of the DMSO control, min is the Ratio of the negative control without enzyme, and sample is the Ratio of the compound. Ratio = RFU520nm /RFU495nm [formula] Inhibition% = (max−sample)/(max−min) × 100% [formula] Table 5-1 Inhibitory activity of test compounds against HPK1 kinase

T1 sequence (Q92918 whole entry): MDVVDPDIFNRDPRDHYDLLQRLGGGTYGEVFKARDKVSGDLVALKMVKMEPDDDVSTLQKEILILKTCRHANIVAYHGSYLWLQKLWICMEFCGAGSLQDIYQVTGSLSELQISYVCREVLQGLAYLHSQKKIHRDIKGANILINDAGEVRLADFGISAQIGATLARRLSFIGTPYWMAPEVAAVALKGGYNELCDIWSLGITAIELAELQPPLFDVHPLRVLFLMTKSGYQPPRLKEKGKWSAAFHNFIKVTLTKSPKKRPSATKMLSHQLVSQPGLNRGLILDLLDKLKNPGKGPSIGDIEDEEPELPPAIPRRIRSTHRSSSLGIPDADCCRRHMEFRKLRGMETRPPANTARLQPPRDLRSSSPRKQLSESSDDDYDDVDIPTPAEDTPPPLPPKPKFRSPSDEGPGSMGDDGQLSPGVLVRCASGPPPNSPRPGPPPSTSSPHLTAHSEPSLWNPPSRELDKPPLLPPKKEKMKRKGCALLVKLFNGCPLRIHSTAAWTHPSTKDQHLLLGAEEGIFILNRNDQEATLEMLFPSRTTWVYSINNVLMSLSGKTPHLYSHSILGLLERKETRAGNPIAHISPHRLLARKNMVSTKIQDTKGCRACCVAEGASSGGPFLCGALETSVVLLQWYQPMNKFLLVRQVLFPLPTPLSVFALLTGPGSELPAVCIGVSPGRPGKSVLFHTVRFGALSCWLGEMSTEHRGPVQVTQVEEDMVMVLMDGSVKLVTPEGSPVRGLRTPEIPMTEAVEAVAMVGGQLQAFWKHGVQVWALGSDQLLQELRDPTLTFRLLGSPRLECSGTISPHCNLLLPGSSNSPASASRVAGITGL

SMILES: CN(C)Cc1nc(Nc2ccc(-c3cnc4cc(F)ccn34)c3c2C(=O)NC3)ccc1[C@@H]1CCOC1 [Control compound 1, reference compound]
- clearance ([1]; IV, 2.5 mg/kg): 169 mL/min/kg
- half-life ([1]; IV, 2.5 mg/kg): 53.4 min
- AUC ([1]; po, i. g., 10 mg/kg): 248 ng·h/mL
- Cmax ([1]; po, i. g., 10 mg/kg): 93.8 ng/mL
- half-life ([1]; po, i. g., 10 mg/kg): 123 min
- clearance ([2]; IV, 2.5 mg/kg): 233 mL/min/kg
- half-life ([2]; IV, 2.5 mg/kg): 59.2 min
- AUC ([2]; po, i. g., 10 mg/kg): 61.1 ng·h/mL
- Cmax ([2]; po, i. g., 10 mg/kg): 14.6 ng/mL
- half-life ([2]; po, i. g., 10 mg/kg): 103 min
- Activation fold at 100 nM concentration [3]: <10
- Maximum activation fold [3]: <10

SMILES: Cn1ccc2c(-c3ccc(Nc4ccc(N5CCC(CN6CCN7c8cc(F)c(N9CCC(=O)NC9=O)cc8CC[C@@H]7C6)CC5)cn4)c4c3CNC4=O)ccnc21 [Trifluoroacetic acid salt of compound 32]
- DC50 (HPK1 protein): < 20 nM
- IC50 (HPK1 kinase): < 50 nM
- AUC ([1]; po, i. g., 10 mg/kg): 15800 ng·h/mL
- Cmax ([1]; po, i. g., 10 mg/kg): 1250 ng/mL
- half-life ([1]; po, i. g., 10 mg/kg): 262 min
- Maximum activation fold [3]: >10

SMILES: N#Cc1ccn2c(-c3ccc(Nc4ccc(N5CCC(CN6CCN7c8cc(F)c(N9CCC(=O)NC9=O)cc8CC[C@H]7C6)CC5)cn4)c4c3CNC4=O)cnc2c1 [Trifluoroacetic acid salt of compound 39]
- DC50 (HPK1 protein): < 20 nM
- IC50 (HPK1 kinase): < 50 nM
- AUC ([1]; po, i. g., 10 mg/kg): 25600 ng·h/mL
- Cmax ([1]; po, i. g., 10 mg/kg): 2070 ng/mL
- half-life ([1]; po, i. g., 10 mg/kg): 225 min
- clearance ([2]; IV, 2.5 mg/kg): 6.58 mL/min/kg
- half-life ([2]; IV, 2.5 mg/kg): 253 min
- AUC ([2]; po, i. g., 10 mg/kg): 7260 ng·h/mL
- Cmax ([2]; po, i. g., 10 mg/kg): 777 ng/mL
- half-life ([2]; po, i. g., 10 mg/kg): 273 min
- Activation fold at 100 nM concentration [3]: >10
- Maximum activation fold [3]: >10

SMILES: Cn1ccc2c(-c3ccc(Nc4ccc(N5CCC(CN6CCN7c8cc(F)c(N9CCC(=O)NC9=O)cc8CC[C@H]7C6)CC5)cn4)c4c3CNC4=O)ccnc21 [Trifluoroacetic acid salt of compound 35]
- DC50 (HPK1 protein): < 20 nM
- IC50 (HPK1 kinase): < 50 nM
- AUC ([1]; po, i. g., 10 mg/kg): 37100 ng·h/mL
- Cmax ([1]; po, i. g., 10 mg/kg): 2650 ng/mL
- half-life ([1]; po, i. g., 10 mg/kg): 726 min
- Maximum activation fold [3]: >10

SMILES: N#Cc1ccn2c(-c3ccc(Nc4ccc(N5CCC(CN6CCN7c8cc(F)c(N9CCC(=O)NC9=O)cc8CC[C@@H]7C6)CC5)cn4)c4c3CNC4=O)cnc2c1 [Trifluoroacetic acid salt of compound 31]
- DC50 (HPK1 protein): < 20 nM
- IC50 (HPK1 kinase): < 50 nM
- AUC ([1]; po, i. g., 5 mg/kg): 6500 ng·h/mL
- Cmax ([1]; po, i. g., 5 mg/kg): 553 ng/mL
- half-life ([1]; po, i. g., 5 mg/kg): 182 min
- clearance ([2]; IV, 1 mg/kg): 5.38 mL/min/kg
- half-life ([2]; IV, 1 mg/kg): 293 min
- AUC ([2]; po, i. g., 5 mg/kg): 4390 ng·h/mL
- Cmax ([2]; po, i. g., 5 mg/kg): 464 ng/mL
- half-life ([2]; po, i. g., 5 mg/kg): 269 min
- Activation fold at 100 nM concentration [3]: >10
- Maximum activation fold [3]: >10

SMILES: O=C1CCN(c2cc3c(cc2F)N2CCN(C4CC5(CCN(c6ccc(Nc7ccc(-c8cnc9cc(F)ccn89)c8c7C(=O)NC8)nc6)CC5)C4)C[C@H]2CC3)C(=O)N1 [Trifluoroacetic acid salt of compound 19]
- DC50 (HPK1 protein): < 20 nM
- IC50 (HPK1 kinase): < 50 nM
- AUC ([1]; po, i. g., 10 mg/kg): 50500 ng·h/mL
- Cmax ([1]; po, i. g., 10 mg/kg): 3700 ng/mL
- half-life ([1]; po, i. g., 10 mg/kg): 401 min
- clearance ([2]; IV, 2.5 mg/kg): 11 mL/min/kg
- half-life ([2]; IV, 2.5 mg/kg): 460 min
- AUC ([2]; po, i. g., 10 mg/kg): 5860 ng·h/mL
- Cmax ([2]; po, i. g., 10 mg/kg): 465 ng/mL
- half-life ([2]; po, i. g., 10 mg/kg): 430 min
- Activation fold at 100 nM concentration [3]: >10
- Maximum activation fold [3]: >10

SMILES: O=C1CC[C@H](NC(=O)c2cc3c(cc2F)N2CCN(CC4CCN(c5ccc(Nc6ccc(-c7cnc8cc(F)ccn78)c7c6C(=O)NC7)nc5)CC4)C[C@@H]2CC3)C(=O)N1 [Trifluoroacetic acid salt of compound 7]
- DC50 (HPK1 protein): < 20 nM
- IC50 (HPK1 kinase; ATP working concentration: 1 mM): < 50 nM
- Activation fold at 100 nM concentration [3]: >10
- Maximum activation fold [3]: >10
